Source: patent US8138168B1 (Takeda Pharmaceutical Company Limited, priority 2007, dated 2012)

Target: T1, Recombinant human renin (Homo sapiens, UniProt P00797)
T1 construct: isolate the active form (residues 67-406); made in house; host or cells: FreeStyle 293-F cells (transient expression of pcDNA3.1(+)/hREN)
T1 sequence (P00797 67-406): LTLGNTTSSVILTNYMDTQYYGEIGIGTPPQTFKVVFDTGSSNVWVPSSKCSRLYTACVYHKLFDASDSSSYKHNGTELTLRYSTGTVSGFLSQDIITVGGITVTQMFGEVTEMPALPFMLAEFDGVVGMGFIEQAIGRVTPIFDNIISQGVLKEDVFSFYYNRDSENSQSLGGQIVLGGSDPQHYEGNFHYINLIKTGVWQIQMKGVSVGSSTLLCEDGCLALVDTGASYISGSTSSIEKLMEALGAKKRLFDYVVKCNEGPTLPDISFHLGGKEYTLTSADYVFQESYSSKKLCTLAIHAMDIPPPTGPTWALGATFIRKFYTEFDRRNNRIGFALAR
Assay: In vitro enzymatic activity assay of renin inhibitors (fluorogenic peptide substrate)
Type: biochemical
Details: read-out: IC50 of Exemplified Compounds Against Renin
In short: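 Enzyme: recombinant human renin, 3 nM final, 10 min compound pre-incubation at 37 °C; buffer 50 mM Hepes pH 7.4 with 0.1 mg/mL BSA or extra 2% BSA; 5% DMSO.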

IC50 [nM] | Structure (SMILES)
< 100 | COCCCn1c([C@@H]2CCCN(C(=O)C[C@H](N)Cc3ccc(-c4ccc(NC(C)=O)cc4)cc3)C2)nc2c(F)cccc21 [Compound 491, N-(4′-((R)-2-amino-4-((R)-3-(4-fluoro-1-(3-methoxypropyl)-1H-benzo[d]imidazol-2-yl)piperidin-1-yl)-4-oxobutyl)biphenyl-4-yl)acetamide]
< 100 | COCCCn1c([C@@H]2CCCN(C(=O)C[C@H](N)Cc3ccc(-c4ccncc4OC)cc3)C2)nc2ccccc21 [Compound 144, (R)-3-amino-1-((R)-3-(1-(3-methoxypropyl)-1H-benzo[d]imidazol-2-yl)piperidin-1-yl)-4-(4-(3-methoxypyridin-4-yl)phenyl)butan-1-one]
100 to 1000 | CCCSc1ncccc1C(=O)NC[C@@H](N)CC(=O)N1CCC[C@@H](c2nc3ccccc3n2CCCOC)C1 [Compound 307, N-((S)-2-amino-4-((R)-3-(1-(3-methoxypropyl)-1H-benzo[d]imidazol-2-yl)piperidin-1-yl)-4-oxobutyl)-2-(propylthio)nicotinamide]
100 to 1000 | COCCCn1c([C@@H]2CCCN(C(=O)C[C@@H](N)COc3nc4ccccc4[nH]3)C2)nc2ccccc21 [Compound 434, (R)-4-(1H-benzo[d]imidazol-2-yloxy)-3-amino-1-((R)-3-(1-(3-methoxypropyl)-1H-benzo[d]imidazol-2-yl)piperidin-1-yl)butan-1-one]
< 100 | COCCCn1c([C@@H]2CCCN(C(=O)C[C@H](N)Cc3ccc(-c4ccc(N)nc4)cc3)C2)nc2ccccc21 [Compound 136, (R)-3-amino-4-(4-(6-aminopyridin-3-yl)phenyl)-1-((R)-3-(1-(3-methoxypropyl)-1H-benzo[d]imidazol-2-yl)piperidin-1-yl)butan-1-one]
> 1000 | C[C@H](N)C(=O)N1CCCC(c2nc3ccccc3[nH]2)C1 (stereo partly drawn) [Compound 53, (2S)-1-(3-(1H-benzo[d]imidazol-2-yl)piperidin-1-yl)-2-aminopropan-1-one]
100 to 1000 | COCCCn1c([C@@H]2CCCN(C(=O)C[C@H](N)CNC(=O)Nc3ccccc3C(C)C)C2)nc2ccccc21 [Compound 301, 1-((S)-2-amino-4-((R)-3-(1-(3-methoxypropyl)-1H-benzo[d]imidazol-2-yl)piperidin-1-yl)-4-oxobutyl)-3-(2-isopropylphenyl)urea]
100 to 1000 | COCCCn1c([C@@H]2CCCN(C(=O)C[C@H](N)CNC(=O)Nc3ccccc3)C2)nc2ccccc21 [Compound 269, 1-((S)-2-amino-4-((R)-3-(1-(3-methoxypropyl)-1H-benzo[d]imidazol-2-yl)piperidin-1-yl)-4-oxobutyl)-3-phenylurea]
< 100 | CC(=O)NCCn1c([C@@H]2CCCN(C(=O)C[C@H](N)Cc3ccc(-c4ccc5c(c4)SCC(=O)O5)cc3)C2)nc2ccccc21 [Compound 464, N-(2-(2-((R)-1-((R)-3-amino-4-(4-(2-oxo-2,3-dihydrobenzo[b][1,4]oxathiin-6-yl)phenyl)butanoyl)piperidin-3-yl)-1H-benzo[d]imidazol-1-yl)ethyl)acetamide]
100 to 1000 | CC(=O)NCCn1c([C@@H]2CCCN(C(=O)C[C@H](N)Cc3ccc(-c4ccc(O)nc4)cc3)C2)nc2c(C)cccc21 [Compound 473, N-(2-(2-((R)-1-((R)-3-amino-4-(4-(6-hydroxypyridin-3-yl)phenyl)butanoyl)piperidin-3-yl)-4-methyl-1H-benzo[d]imidazol-1-yl)ethyl)acetamide]
< 100 | COCCCn1c([C@@H]2CCCN(C(=O)C[C@H](N)Cc3ccc(-c4c(C)n[nH]c4C)cc3)C2)nc2ccccc21 [Compound 137, (R)-3-amino-4-(4-(3,5-dimethyl-1H-pyrazol-4-yl)phenyl)-1-((R)-3-(1-(3-methoxypropyl)-1H-benzo[d]imidazol-2-yl)piperidin-1-yl)butan-1-one]
> 1000 | COCCCn1c([C@@H]2CCCN(C(=O)C[C@H](N)Cc3ccc4ccccc4c3)C2)nc2cccc(C)c21 [Compound 107, (R)-3-Amino-1-((R)-3-(1-(3-methoxypropyl)-7-methyl-1H-benzo[d]imidazol-2-yl)piperidin-1-yl)-4-(naphthalen-2-yl)butan-1-one]
100 to 1000 | COCCCn1c([C@@H]2CCCN(C(=O)C[C@H](N)CNC(=O)CC3CCCCC3)C2)nc2ccccc21 [Compound 319, N-((S)-2-amino-4-((R)-3-(1-(3-methoxypropyl)-1H-benzo[d]imidazol-2-yl)piperidin-1-yl)-4-oxobutyl)-2-cyclohexylacetamide]
> 1000 | COCCCn1c([C@@H]2CCCN(C(=O)CC(N)C3CCNCC3)C2)nc2ccccc21 (stereo partly drawn) [Compound 94, 3-amino-1-((R)-3-(1-(3-methoxypropyl)-1H-benzo[d]imidazol-2-yl)piperidin-1-yl)-3-(piperidin-4-yl)propan-1-one]
< 100 | COCCCn1c([C@@H]2CCCN(C(=O)C[C@H](N)Cc3ccc(-c4ccc(N5CCNC5=O)cc4)cc3)C2)nc2c(F)cccc21 [Compound 441, 1-(4′-((R)-2-amino-4-((R)-3-(4-fluoro-1-(3-methoxypropyl)-1H-benzo[d]imidazol-2-yl)piperidin-l-yl)-4-oxobutyl)biphenyl-4-yl)imidazolidin-2-one]
> 1000 | O=C(NC(=O)N1CCCC(c2nc3ccccc3[nH]2)C1)c1ccccc1 (stereo not drawn) [Compound 5, 3-(1H-benzo[d]imidazol-2-yl)-N-benzoylpiperidine-1-carboxamide]
100 to 1000 | COCCCn1c(C2CCCN(C(=O)C[C@H](N)Cc3ccc4ccccc4c3)C2)nc2ccc(CO)cc21 (stereo partly drawn) [Compound 113, (3R)-3-amino-1-(3-(6-(hydroxymethyl)-1-(3-methoxypropyl)-1H-benzo[d]imidazol-2-yl)piperidin-1-yl)-4-(naphthalen-2-yl)butan-1-one]
> 1000 | CCOC(=O)c1ccccc1NC(=O)NC[C@@H](N)CC(=O)N1CCC[C@@H](c2nc3ccccc3n2CCCOC)C1 [Compound 330, ethyl 2-(3-((S)-2-amino-4-((R)-3-(1-(3-methoxypropyl)-1H-benzo[d]imidazol-2-yl)piperidin-1-yl)-4-oxobutyl)ureido)benzoate]
< 100 | COCCCn1c([C@@H]2CCCN(C(=O)C[C@H](N)Cc3ccc(-c4ccc(C(=O)NCC(O)CO)cc4)cc3)C2)nc2ccccc21 (stereo partly drawn) [Compound 181, 4′-((R)-2-amino-4-((R)-3-(1-(3-methoxypropyl)-1H-benzo[d]imidazol-2-yl)piperidin-1-yl)-4-oxobutyl)-N-(2,3-dihydroxypropyl)biphenyl-4-carboxamide]
100 to 1000 | COCCCn1c([C@@H]2CCCN(C(=O)[C@@H]3CN(S(=O)(=O)c4cccc5ccccc45)C[C@H]3N)C2)nc2ccccc21 [Compound 354, ((3R,4S)-4-amino-1-(naphthalen-1-ylsulfonyl)pyrrolidin-3-yl)((R)-3-(1-(3-methoxypropyl)-1H-benzo[d]imidazol-2-yl)piperidin-1-yl)methanone]
100 to 1000 | COCCCn1c([C@@H]2CCCN(C(=O)C[C@H](N)Cc3ccc(Cl)c(Cl)c3)C2)nc2ccccc21 [Compound 77, (R)-3-amino-4-(3,4-dichlorophenyl)-1((R)-3-(1-(3-methoxypropyl)-1H-benzo[d]imidazol-2-yl)piperidin-1-yl)butan-1-one]
